The text below walks through data of the NIST ThermoML archive (doi:10.1021/je9000922).

As a reminder, the vapor or sublimation pressure is the equilibrium pressure above the liquid or solid.

± gives the expanded uncertainty stated by the source.

The conditions of this series: 355.65 K; Liquid.

`CC(C)O` [propan-2-ol]: the “vapor or sublimation pressure” value worked out at 101.32 ± 3 kPa.
